According to patent publication US12129237B2, “Substituted diaminocarboxamide and diaminocarbonitrile pyrimidines, compositions thereof, and methods of treatment therewith” (SIGNAL PHARMACEUTICALS, LLC, priority 2011, dated 2024):
pIC50: −log10 of the molar value.

These molecules were tested against T1, JNK1 (Homo sapiens, UniProt P45983) (assay: JNK1 biochemical assays (one or more of: time resolved fluorescence, Z'-LYTE Cascade, radioactive)). Settings: Table 2; JNK1 IC50 activity level; read-out: Act. Level.
T1 construct: purchased Carna Biosciences
T1 sequence (P45983 whole entry): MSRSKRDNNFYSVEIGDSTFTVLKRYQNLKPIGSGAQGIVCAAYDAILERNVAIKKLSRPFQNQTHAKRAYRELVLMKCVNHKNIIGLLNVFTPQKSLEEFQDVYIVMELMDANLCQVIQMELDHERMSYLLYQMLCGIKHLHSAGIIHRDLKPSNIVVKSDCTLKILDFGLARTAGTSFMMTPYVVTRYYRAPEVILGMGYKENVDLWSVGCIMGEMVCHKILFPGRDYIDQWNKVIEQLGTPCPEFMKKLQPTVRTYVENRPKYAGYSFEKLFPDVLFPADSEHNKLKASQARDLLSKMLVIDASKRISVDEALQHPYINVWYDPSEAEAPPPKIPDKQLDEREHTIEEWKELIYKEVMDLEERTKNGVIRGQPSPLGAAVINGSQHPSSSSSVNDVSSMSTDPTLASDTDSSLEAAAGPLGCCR

| pIC50 | Structure (SMILES) |
| --- | --- |
| > 6.70 | COc1ccc(Nc2ncc(C(N)=O)c(Nc3ccccc3)n2)cn1 [Example B-16, 2-(6-methoxypyridin-3-ylamino)-4-(phenylamino)pyrimidine-5-carboxamide] |
| > 6.70 | COc1ccc(Nc2ncc(C(N)=O)c(Nc3ccccc3)n2)c(C)c1 [Example B-18, 2-(4-methoxy-2-methylphenylamino)-4-(phenylamino)pyrimidine-5-carboxamide] |
| 6.10 to 6.70 | NC(=O)c1cnc(NCC2CCCCC2)nc1Nc1ccccc1 [Example B-49, 2-(cyclohexylmethylamino)-4-(phenylamino)pyrimidine-5-carboxamide] |
| > 6.70 | NC(=O)c1cnc(N[C@@H]2CCc3ccccc3C2)nc1N[C@@H]1CCC[C@H](O)C1 [Example B-84, 4-((1R,3S)-3-hydroxycyclohexylamino)-2-((R)-1,2,3,4-tetrahydronaphthalen-2-ylamino)pyrimidine-5-carboxamide] |
| 6.10 to 6.70 | Cc1cc(Nc2ncc(C(N)=O)c(Nc3ccccc3)n2)n[nH]1 [Example B-33, 2-(5-methyl-1H-pyrazol-3-ylamino)-4-(phenylamino)pyrimidine-5-carboxamide] |
| > 6.70 | NC(=O)c1cnc(NC2CCOCC2)nc1Nc1ccc2ncccc2c1 [Example B-2, 4-(quinolin-6-ylamino)-2-(tetrahydro-2H-pyran-4-ylamino)pyrimidine-5-carboxamide] |
| 6.10 to 6.70 | NC(=O)c1cnc(NCC2CCCO2)nc1Nc1ccccc1 (centres unmarked) [Example B-64, 4-(phenylamino)-2-((tetrahydrofuran-2-yl)methylamino)pyrimidine-5-carboxamide] |
| > 6.70 | NC(=O)c1cnc(N[C@@H]2CCCc3ccccc32)nc1N[C@@H]1CCC[C@H](O)C1 [Example B-74, 4-((1R,3S)-3-hydroxycyclohexylamino)-2-((R)-1,2,3,4-tetrahydronaphthalen-1-ylamino)pyrimidine-5-carboxamid] |
| 6.10 to 6.70 | CCC(Nc1ncc(C(N)=O)c(Nc2ccccc2)n1)c1ccccc1 (centres unmarked) [Example B-56, 4-(phenylamino)-2-(1-phenylpropylamino)pyrimidine-5-carboxamide] |
| 5.00 to 6.00 | CN1CCCC1CCNc1ncc(C(N)=O)c(Nc2ccccc2)n1 (centres unmarked) [Example B-62, 2-(2-(1-methylpyrrolidin-2-yl)ethylamino)-4-(phenylamino)pyrimidine-5-carboxamide] |
| > 6.70 | NC(=O)c1cnc(Nc2cccc(F)c2)nc1Nc1ccccc1 [Example B-24, 2-(3-fluorophenylamino)-4-(phenylamino)pyrimidine-5-carboxamide] |
| 5.00 to 6.00 | NC(=O)c1cnc(NC2CCNCC2)nc1Nc1ccccc1 [Example B-9, 4-(phenylamino)-2-(piperidin-4-ylamino)pyrimidine-5-carboxamide] |
| > 6.70 | NC(=O)c1cnc(Nc2ccc(N3CCOCC3)cc2)nc1Nc1ccccc1 [Example B-40, 2-(4-morpholinophenylamino)-4-(phenylamino)pyrimidine-5-carboxamide] |

Same assay, conditions: Table 3; JNK1 IC50 activity level; read-out: Act. Level

| pIC50 | Structure (SMILES) |
| --- | --- |
| > 6.70 | C[C@@H]1CC[C@@H](Nc2nc(N[C@H]3CC[C@H](O)CC3)ncc2C#N)C[C@H]1O [Example C-48, 4-((1R,3R,4R)-3-hydroxy-4-methylcyclohexylamino)-2-((1r,4R)-4-hydroxycyclohexylamino) pyrimidine-5-carbonitrile] |
| > 6.70 | C[C@]1(O)CCC[C@@H](Nc2nc(N[C@H]3CC[C@H](OC(F)F)CC3)ncc2C#N)C1 [Example C-44, 2-((1r,4R)-4-(difluoromethoxy)cyclohexylamino)-4-((1R,3S)-3-hydroxy-3-methylcyclohexylamino) pyrimidine-5-carbonitrile] |
| > 6.70 | N#Cc1cnc(N[C@H]2CC[C@H](OC(F)F)CC2)nc1N[C@@H]1CCC[C@H](O)C1 [Example C-6, 2-((1r,4R)-4-(difluoromethoxy)cyclohexylamino)-4-((1R,3S)-3-hydroxycyclohexylamino) pyrimidine-5-carbonitrile] |
| 6.10 to 6.70 | CC(C)(C)Nc1ncc(C#N)c(N[C@@H]2CCC[C@H](O)C2)n1 [Example C-7, 2-(tert-butylamino)-4-((1R,3S)-3-hydroxycyclohexylamino) pyrimidine-5-carbonitrile] |

Same assay, conditions: one or more of the JNK1 biochemical assays; read-out: Act. Level (JNK1 IC50 activity level)

| pIC50 | Structure (SMILES) |
| --- | --- |
| > 6.70 | CN(C)C(=O)[C@H]1CC[C@H](Nc2ncc(C(N)=O)c(NC34CC(C3)C4)n2)CC1 [Example 418, 4-(bicyclo[1.1.1]pentan-1-ylamino)-2-((1r,4r)-4-(dimethylcarbamoyl)cyclohexylamino)pyrimidine-5-carboxamide] |
| > 6.70 | C[C@@H]1CC[C@@H](Nc2nc(N[C@@H](C)C(C)(C)C)ncc2C(N)=O)C[C@H]1O [Example 469, 2-((S)-3,3-dimethylbutan-2-ylamino)-4-((1R,3R,4R)-3-hydroxy-4-methylcyclohexylamino)pyrimidine-5-carboxamide] |
| > 6.70 | CC(C)(CO)Nc1nc(N[C@H]2CC[C@H](O)CC2)ncc1C(N)=O [Example 311, 4-(1-hydroxy-2-methylpropan-2-ylamino)-2-((1r,4r)-4-hydroxycyclohexylamino)pyrimidine-5-carboxamide] |
| > 6.70 | CC(C)(C)Nc1ncc(C(N)=O)c(N[C@@H]2CCC[C@](C)(O)C2)n1 [Example 213, 2-(tert-butylamino)-4-((1R,3S)-3-hydroxy-3-methylcyclohexylamino)pyrimidine-5-carboxamide] |
| > 6.70 | C[C@@H]1CC[C@@H](Nc2nc(NC3CC3)ncc2C(N)=O)C[C@H]1O [Example 272, 2-(cyclopropylamino)-4-((1R,3R,4R)-3-hydroxy-4-methylcyclohexylamino)pyrimidine-5-carboxamide] |
| > 6.70 | CC(C)(Nc1nc(N[C@H]2CC[C@H](OC3CC3)CC2)ncc1C(N)=O)C1CC1 [Example 483, 2-((1r,4r)-4-cyclopropoxycyclohexylamino)-4-(2-cyclopropylpropan-2-ylamino)pyrimidine-5-carboxamide] |
| > 6.70 | CC(C)(C)Nc1nc(N[C@@H]2CCC[C@H](O)C2)ncc1C(N)=O [Example 307, 4-(tert-butylamino)-2-((1R,3S)-3-hydroxycyclohexylamino)pyrimidine-5-carboxamide] |
| > 6.70 | CO[C@H]1CC[C@H](Nc2ncc(C(N)=O)c(NC3(C)CCCCC3)n2)CC1 [Example 358, 2-((1r,4r)-4-methoxycyclohexylamino)-4-(1-methylcyclohexylamino)pyrimidine-5-carboxamide] |
| > 6.70 | CO[C@H]1CC[C@H](Nc2ncc(C(N)=O)c(NC(C)(C)C(C)C)n2)CC1 [Example 274, 4-(2,3-dimethylbutan-2-ylamino)-2-((1r,4r)-4-methoxycyclohexylamino)pyrimidine-5-carboxamide] |
| > 6.70 | CO[C@H]1CC[C@H](Nc2ncc(C(N)=O)c(NC3CCC3C)n2)CC1 (some centres unmarked) [Example 254, 2-((1r,4r)-4-methoxycyclohexylamino)-4-(2-methylcyclobutylamino)pyrimidine-5-carboxamide] |
| > 6.70 | CO[C@H]1CC[C@](C)(Nc2ncc(C(N)=O)c(N[C@@H]3CCC[C@H](O)C3)n2)CC1 [Example 216, 4-((1R,3S)-3-hydroxycyclohexylamino)-2-((1r,4R)-4-methoxy-1-methylcyclohexylamino)pyrimidine-5-carboxamide] |
| > 6.70 | NC(=O)c1cnc(N[C@H]2CC[C@H](OCC(F)(F)F)CC2)nc1N[C@@H]1CCC[C@@H]1CO [Example 266, 4-((1R,2S)-2-(hydroxymethyl)cyclopentylamino)-2-((1r,4R)-4-(2,2,2-trifluoroethoxy)cyclohexylamino)pyrimidine-5-carboxamide] |
| 6.10 to 6.70 | CC(C)(C)Nc1nc(NC2COC2)ncc1C(N)=O [Example 303, 4-(tert-butylamino)-2-(oxetan-3-ylamino)pyrimidine-5-carboxamide] |
| > 6.70 | NC(=O)c1cnc(NC23CCC(F)(CC2)CC3)nc1N[C@@H]1CCC[C@H](O)C1 [Example 267, 2-(4-fluorobicyclo[2.2.2]octan-1-ylamino)-4-((1R,3S)-3-hydroxycyclohexylamino)pyrimidine-5-carboxamide] |
| > 6.70 | CO[C@H]1CC[C@H](Nc2ncc(C(N)=O)c(NC(C)(C)C3CC3)n2)CC1 [Example 315, 4-(2-cyclopropylpropan-2-ylamino)-2-((1r,4r)-4-methoxycyclohexylamino)pyrimidine-5-carboxamide] |

Same assay, conditions: tested in one or more of the JNK1 biochemical assays; read-out: Act. Level (JNK1 biochemical assay IC50 activity level)

| pIC50 | Structure (SMILES) |
| --- | --- |
| > 6.70 | CCO[C@H]1CC[C@H](Nc2ncc(C(N)=O)c(N[C@@H]3CCC(O)C3)n2)CC1 (stereo partly drawn) [Example A-96, 2-((1r,4R)-4-ethoxycyclohexylamino)-4-((1R,3S)-3-hydroxycyclopentylamino)pyrimidine-5-carboxamide] |
| > 6.70 | CCO[C@H]1CC[C@H](Nc2ncc(C(N)=O)c(NCCO)n2)CC1 [Example A-71, 2-((1r,4r)-4-ethoxycyclohexylamino)-4-(2-hydroxyethylamino)pyrimidine-5-carboxamide] |
| 6.00 to 6.10 | CCO[C@H]1CC[C@@H](Nc2ncc(C(N)=O)c(N[C@H]3CCC[C@@H]3O)n2)CC1 [Example A-62, 2-((1s,4R)-4-ethoxycyclohexylamino)-4-((1S,2S)-2-hydroxycyclopentylamino)pyrimidine-5-carboxamide] |
| > 6.70 | CO[C@H]1CC[C@H](Nc2ncc(C(N)=O)c(N[C@@H]3CCCC[C@@](C)(O)C3)n2)CC1 [Example A-186, 4-((1R,3R)-3-hydroxy-3-methylcycloheptylamino)-2-((1r,4R)-4-methoxycyclohexylamino)pyrimidine-5-carboxamide] |
| > 6.70 | CN(C)C(=O)[C@H]1CC[C@H](Nc2ncc(C(N)=O)c(N[C@@H]3CCC[C@H](O)C3)n2)CC1 [Example A-27, 2-((1r,4R)-4-(dimethylcarbamoyl)cyclohexylamino)-4-((1R,3S)-3-hydroxycyclohexylamino)pyrimidine-5-carboxamide] |
| 5.00 to 6.00 | CNC(=O)[C@H]1CC[C@@H](Nc2nc(NC3CCCC3)ncc2C(N)=O)CC1 [Example A-130, 2-(cyclopentylamino)-4-((1s,4s)-4-(methylcarbamoyl)cyclohexylamino)pyrimidine-5-carboxamide] |
